Data taken from patent EP1004306A2, “Estrogen agonists/antagonists” (Pfizer Products Inc., priority 1998, dated 2000).

Legend:
[1] = test system: Male Sprague-Dawley rats; experiment: Effect on prostate weight; type: in vivo
Description: Male Sprague-Dawley rats, three months of age are administered by subcutaneous injection either vehicle (10% ethanol in water), estradiol (30 µg/kg), testosterone (1 mg/kg) or a compound of formula I daily for 14 days (n=6/group). After 14 days the animals are sacrificed, the prostate is removed, and the wet prostate weight is determined. Mean weight is determined and statistical significance (p<0.05) is determined compared to the vehicle-treated group using Student's t-test.

[2] = test system: adult ORX rats; experiment: Male osteoporosis model: prostate weight and histology; type: in vivo, Sprague-Dawley male rats; conditions: 10 and 100 µg/kg/d p.o. for 60 days; compared to ORX controls
Description: (§1) Fifty Sprague-Dawley male rats were sham-operated (n=10) or ORX (n=40) at 10 months of age. Ten rats were autopsied on day 0 as basal controls. ORX rats were treated (daily p.o.) with either vehicle (10% ethanol in water) or (-)Cis-6-phenyl-5-[4-(2-pyrrolidin-1-yl-ethoxy)phenyl]-5,6,7,8-tetrahydronaphthalen-2-ol at 1, 10, or 100 µg/kg/day for 60 days. There were 10 rats per each subgroup. all rats were given subcutaneous injections with 10 mg/kg of calcein (Sigma Chemical Co., St. Louis, MO) on 13 and 3 days before autopsy. • 1) Total serum cholesterol: Total serum cholesterol was determined using a high performance cholesterol colormetic assay (Boehringer Mannheim Biochemicals, Indianapolis, IN). • 2) Prostate weight: The prostate weight was determined immediately at autopsy. • 3) Femoral Bone Mineral Measurements: The right femur from each rat was removed at autopsy and scanned using dual energy x-ray absorptiometry (DEXA, QDR 1000/W, Hologic Inc., Waltham, MA) equipped with "Regional High Resolution Scan" software (Hologic Inc., Waltham, MA). The scan field size is 5.08 x 1.902 cm, resolution was 0.0254 x 0.0127 cm and scan speed is 7.25 mim/second. […]

[3] = test system: OVX rats; experiment: Prevention of bone loss in OVX rats (female bone mineral density, DEXA); type: in vivo; conditions: Rattus norvegicus, 672 h, oral, read-out: oral ED50, prevents bone loss in OVX rats
From the text: Bone mineral density, a measure of bone mineral content, accounts for greater than 80% of a bone's strength. Loss of bone mineral density with age and/or disease reduces a bone's strength and renders it more prone to fracture. Bone mineral content is accurately measured in people and animals by dual x-ray absorptiometry (DEXA) such that changes as little as 1% can be quantified. We have utilized DEXA to evaluate changes in bone mineral density due to estrogen deficiency following ovariectomy (surgical removal of ovaries) and treatment with vehicle, estradiol (E2), keoxifen (raloxifen), or other estrogen agonists. The purpose of these studies is to evaluate the ability of the compounds of this invention to prevent estrogen deficiency bone loss as measured by DEXA. Female (S-D) rats 4-6 months of age undergo bilateral ovariectomy or sham surgery and allowed to recover from anesthesia. […] (Hologic, Inc. Waltham, MA) and bone mineral density is determined in the distal portion of the femur at a site from 1cm to 2cm from the distal end of the femur using the high resolution software supplied by Hologic. Bone mineral density is determined by dividing the bone mineral content by the bone area of the distal femur. […] Mean bone mineral density is obtained for each animal and statistical differences (p<0.05) from the vehicle-treated ovariectomy and sham-operated group were determined by t test.

[4] = test system: adult ORX rats; experiment: Male osteoporosis model: compression test of fifth lumbar vertebral body (LV5); type: in vivo, Sprague-Dawley male rats; conditions: for Maximal Load of LV5: ORX rats, daily p.o. 60 days, p < 0.05 vs. ORX
Description: as §1, with “ORX rats were treated (daily p.o.) with either vehicle (10% ethanol in water) or (-)Cis-6-phenyl-5-[4-(2-pyrrolidin-1-yl-ethoxy)phenyl]-5,6,7,8-tetrahydronaphthalen-2-ol at 1, 10, or 100 µg/kg/day for 60 days.” left out, “mim/second. The femoral scan images were analyzed and bone area, bone mineral content (BMC), and bone mineral density (BMD) of whole femora (WF), distal femoral metaphyses (DFM), femoral shaft (FS) were determined according to the method described in H. Z. Ke et al., Droloxifene, a New Estrogen Antagonist/Agonist, Prevents Bone Loss in Ovariectomized Rats. ENDOCRINOLOGY 136;2435-2441, 1995. • 4) Third Lumbar Vertebral Body (LV3) Histomorphometry: The LV3 was removed at autopsy, dissected free of muscle, fixed in 70% ethanol, dehydrated in graded concentrations of ethanol, defatted in acetone, then embedded in methyl methacrylate (Eastman Organic Chemicals, Rochester, NY).” for “mim/second.”
• 1. […] A compression test was used to determine the mechanical properties of LV5, as described by Mosekilde et al. (Mosekilde, L., Danielsen, C. C., Gasser, J. The effect on vertebral bone mass and strength of long term treatment with antiresorptive agents, human PTH (1-38), and combination therapy, assessed in aged ovariectomized rats. Endocrinol 1994; 134:2126-2134). […] The maximal load and stiffness were calculated from the load-displacement curve.

[5] = test system: adult ORX rats; experiment: Male osteoporosis model: femoral bone mineral measurements (DEXA); type: in vivo, Sprague-Dawley male rats; conditions: 10 or 100 µg/kg/day p.o. for 60 days; compared to ORX controls
Description: as §1

[6] = test system: adult ORX rats; experiment: Male osteoporosis model: third lumbar vertebral body (LV3) histomorphometry; type: in vivo, Sprague-Dawley male rats; conditions: for Activation Frequency: ORX rats, daily p.o. 60 days
Description: Fifty Sprague-Dawley male rats were sham-operated (n=10) or ORX (n=40) at 10 months of age. Ten rats were autopsied on day 0 as basal controls. […] There were 10 rats per each subgroup. all rats were given subcutaneous injections with 10 mg/kg of calcein (Sigma Chemical Co., St. Louis, MO) on 13 and 3 days before autopsy. • 1) Total serum cholesterol: Total serum cholesterol was determined using a high performance cholesterol colormetic assay (Boehringer Mannheim Biochemicals, Indianapolis, IN). • 2) Prostate weight: The prostate weight was determined immediately at autopsy. • 3) Femoral Bone Mineral Measurements: The right femur from each rat was removed at autopsy and scanned using dual energy x-ray absorptiometry (DEXA, QDR 1000/W, Hologic Inc., Waltham, MA) equipped with "Regional High Resolution Scan" software (Hologic Inc., Waltham, MA). The scan field size is 5.08 x 1.902 cm, resolution was 0.0254 x 0.0127 cm and scan speed is 7.25 mim/second. The femoral scan images were analyzed and bone area, bone mineral content (BMC), and bone mineral density (BMD) of whole femora (WF), distal femoral metaphyses (DFM), femoral shaft (FS) were determined according to the method described in H. Z. Ke et al., Droloxifene, a New Estrogen Antagonist/Agonist, Prevents Bone Loss in Ovariectomized Rats. ENDOCRINOLOGY 136;2435-2441, 1995. • 4) Third Lumbar Vertebral Body (LV3) Histomorphometry: The LV3 was removed at autopsy, dissected free of muscle, fixed in 70% ethanol, dehydrated in graded concentrations of ethanol, defatted in acetone, then embedded in methyl methacrylate (Eastman Organic Chemicals, Rochester, NY). Longitudinal sections of LV3 at 4 and 10 µm thickness were cut using Reichert-Jung Polycut S microtome. One 4 µm and one 10 µm sections from each rat will be used for cancellous bone histomorphometry. The 4 µm sections were stained with modified Masson's Trichrome stain while the 10 µm sections remained unstained.
A Bioquant OS/2 histomorphometry system (R&M Biometrics, Inc., Nashville, TN) was used for the static and dynamic histomorphometric measurements of the secondary spongiosa of the proximal tibial metaphyses between 1.2 and 3.6 mm distal to the growth plate-epiphyseal junction. The first 1.2 mm of the tibial metaphyseal region need to be omitted in order to restrict measurements to the secondary spongiosa. The 4 µm sections will be used to determine indices related to bone volume, bone structure, and bone resorption, while the 10 µm sections will be used to determine indices related to bone formation and bone turnover.
• 1. Total metaphyseal area (TV, mm^2): metaphyseal area between 1.2 and 3.6 mm distal to the growth plate-epiphyseal junction. • 2. Trabecular bone area (BV, mm^2): total area of trabeculae within TV. • 3. Trabecular bone perimeter (BS, mm): the length of total perimeter of trabeculae. • 4. Trabecular bone volume (BV/TV,%): BV / TV x 100. • 5. Trabecular bone number (TBN,#/mm): 1.199 / 2 x BS / TV. • 6. Trabecular bone thickness (TBT, µm): (2000 / 1.199) x (BV / BS). • 7. Trabecular bone separation (TBS, µm): (2000 x 1.199) x (TV - BV).
• 1. Osteoclast number (OCN, #): total number of osteoclast within total metaphyseal area. • 2. […] (OCP, mm): length of trabecular perimeter covered by osteoclast. • 3. Osteoclast number/mm (OCN/mm, #/mm): OCN / BS. • 4. Percent osteoclast perimeter (%OCP,%): OCP / BS x 100.
• 1. Single-calcein labeled perimeter (SLS, mm): total length of trabecular perimeter labeled with one calcein label. • 2. Double-calcein labeled perimeter (DLS, mm): total length of trabecular perimeter labeled with two calcein labels. • 3. Inter-labeled width (ILW, µm): average distance between two calcein labels. • 4. Percent mineralizing perimeter (PMS,%):(SLS/2 + DLS) / BS x 100. • 5. Mineral apposition rate (MAR, µm/day): ILW / label interval. • 6. Bone formation rate/surface ref. (BFR/BS, µm^2/d/µm): (SLS/2 + DLS) x MAR / BS. • 7. […]

[7] = test system: adult ORX rats; experiment: Male osteoporosis model: total serum cholesterol; type: in vivo, Sprague-Dawley male rats; conditions: for decrease of total serum cholesterol: ORX rats
Description: Fifty Sprague-Dawley male rats were sham-operated (n=10) or ORX (n=40) at 10 months of age. Ten rats were autopsied on day 0 as basal controls. ORX rats were treated (daily p.o.) with either vehicle (10% ethanol in water) or (-)Cis-6-phenyl-5-[4-(2-pyrrolidin-1-yl-ethoxy)phenyl]-5,6,7,8-tetrahydronaphthalen-2-ol at 1, 10, or 100 µg/kg/day for 60 days. There were 10 rats per each subgroup. all rats were given subcutaneous injections with 10 mg/kg of calcein (Sigma Chemical Co., St. Louis, MO) on 13 and 3 days before autopsy. • 1) Total serum cholesterol: Total serum cholesterol was determined using a high performance cholesterol colormetic assay (Boehringer Mannheim Biochemicals, Indianapolis, IN). • 2) Prostate weight: The prostate weight was determined immediately at autopsy. • 3) Femoral Bone Mineral Measurements: The right femur from each rat was removed at autopsy and scanned using dual energy x-ray absorptiometry (DEXA, QDR 1000/W, Hologic Inc., Waltham, MA) equipped with "Regional High Resolution Scan" software (Hologic Inc., Waltham, MA). The scan field size is 5.08 x 1.902 cm, resolution was 0.0254 x 0.0127 cm and scan speed is 7.25 mim/second. The femoral scan images were analyzed and bone area, bone mineral content (BMC), and bone mineral density (BMD) of whole femora (WF), distal femoral metaphyses (DFM), femoral shaft (FS) were determined according to the method described in H. Z. Ke et al., Droloxifene, a New Estrogen Antagonist/Agonist, Prevents Bone Loss in Ovariectomized Rats. ENDOCRINOLOGY 136;2435-2441, 1995. • 4) Third Lumbar Vertebral Body (LV3) Histomorphometry: The LV3 was removed at autopsy, dissected free of muscle, fixed in 70% ethanol, dehydrated in graded concentrations of ethanol, defatted in acetone, then embedded in methyl methacrylate (Eastman Organic Chemicals, Rochester, NY). Longitudinal sections of LV3 at 4 and 10 µm thickness were cut using Reichert-Jung Polycut S microtome. One 4 µm and one 10 µm sections from each rat will be used for cancellous bone histomorphometry. […]

[8] = Male osteoporosis model: body weight; type: in vivo, Sprague-Dawley male rats; conditions: 1, 10, 100 µg/kg/day p.o. for 60 days; compared to both sham and ORX controls
Description: as §1

[9] = test system: male rats; conditions: 200 and 400 mg/kg/day; cited from earlier work
[10] = test system: male rats; conditions: treatment of male rats; cited from earlier work
[11] = 10 or 100 µg/kg/day p.o. for 60 days, compared to ORX controls

C[C@]12CC[C@@H]3c4ccc(O)cc4CC[C@H]3[C@@H]1CC[C@@H]2O [estrogen, estradiol]
prostate weight compared to vehicle ([1]; 30 µg/kg s.c. daily for 14 days): significantly reduces prostate weight

C[C@]12CC[C@H]3[C@@H](CCC4=CC(=O)CC[C@@]43C)[C@@H]1CC[C@@H]2O [Testosterone, testosterone]
prostate weight compared to vehicle ([1]; testosterone 1 mg/kg s.c. daily for 14 days): no effect

Oc1ccc2c(c1)CC[C@H](c1ccccc1)[C@@H]2c1ccc(OCCN2CCCC2)cc1 [(-)Cis-6-phenyl-5-[4-(2-pyrrolidin-1-yl-ethoxy)phenyl]-5,6,7,8-tetrahydronaphthalen-2-ol]
prostate histology parameters [2]: no effect
prostate weight [2]: no effect
ED50 [3]: ~1 µg/kg
age-related and ORX-induced decreases in maximal load [4, 11]: completely prevented
Maximal Load of LV5 ([4]; 10 µg dose group): 393 ± 27 N
Maximal Load of LV5 ([4]; 100 µg dose group): 393 ± 25 N
age-related and ORX-induced decreases in DFBMD [5]: completely prevented
age-related and ORX-induced decreases in TBV [6, 11]: completely prevented
bone resorption [6, 11]: significantly decreased
bone turnover [6, 11]: significantly decreased
Activation Frequency ([6]; 10 µg dose group): 2.06 ± 0.28 #/year
Activation Frequency ([6]; 100 µg dose group, p < 0.05 vs. ORX): 0.93 ± 0.08 # #/year
Activation Frequency ([6]; dose group printed as 1 mg, p < 0.05 vs. Sham): 2.67 ±0.34 #/year
decrease of total serum cholesterol ([7]; 10 µg/kg/d p.o. for 60 days): 46%
decrease of total serum cholesterol ([7]; 100 µg/kg/d p.o. for 60 days): 68%
total serum cholesterol ([7]; 1, 10, 100 µg/kg/day p.o. for 60 days, compared to both sham and ORX controls): dose-dependently decreased
body weight [8]: dose-dependently decreased

CC/C(=C(\c1ccccc1)c1ccc(OCCN(C)C)cc1)c1ccccc1 [tamoxifen, 1-(4-β-dimethylaminoethoxyphenyl)-1,2-diphenyl-but-1-ene]
weights of the testes and secondary sex organs [9]: reduces the weights of the testes and secondary sex organs

O=C(c1ccc(OCCN2CCCCC2)cc1)c1c(-c2ccc(O)cc2)sc2cc(O)ccc12 [raloxifene, 6-hydroxy-2-(4-hydroxyphenyl)-3-[4-(2-piperidinoethoxy)benzoyl] benzo[b] thiophene]
ventral prostate [10]: regression of the ventral prostate
